The source made the active and inactive calls. No cut-off for these calls is given here.
Biological target: Cyclin-dependent kinase 5 (Homo sapiens) (UniProt Q00535)
Experiment: Inhibition of CDK5 (unknown origin) assessed as reduction in histone H1 phosphorylation

Sequence of Cyclin-dependent kinase 5 (Homo sapiens) (Q00535 whole entry, looked up): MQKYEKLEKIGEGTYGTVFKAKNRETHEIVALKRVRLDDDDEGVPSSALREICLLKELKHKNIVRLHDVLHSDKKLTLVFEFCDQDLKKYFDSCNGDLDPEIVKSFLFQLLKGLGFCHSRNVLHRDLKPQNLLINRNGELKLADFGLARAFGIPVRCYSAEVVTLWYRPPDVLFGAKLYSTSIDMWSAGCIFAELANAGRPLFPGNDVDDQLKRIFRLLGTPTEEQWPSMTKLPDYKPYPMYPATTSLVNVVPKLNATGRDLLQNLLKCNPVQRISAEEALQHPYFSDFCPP

- inhibition: inactive
SMILES: O=C(O)[C@H](Cc1ccccc1)Oc1ccc(-c2ccccc2)cc1
